Columns and labels:
[1] = tested on: Weizenmehltau (Erysiphe graminis f.sp.tritici); assay: Efficacy against wheat powdery mildew, protective spray on wheat seedlings cv. "Frühgold" (Beispiel 2); type: in vivo; conditions: inoculated 24 h after spray coating dried, visual rating after 7 days, concentration not given, untreated plants 80 % infested
Description: Beispiel 2: Wirksamkeit gegen Weizenmehltau
Blätter von in Töpfen gewachsenen Weizenkeimlingen der Sorte "Frühgold" wurden mit wäßriger Wirkstoffaufbereitung, die aus einer Stammlösung bestehend aus 10 % Wirkstoff, 63% Cyclohexanon und 27 % Emulgiermittel angesetzt wurde, bis zur Tropfnässe besprüht und 24 h nach dem Antrocknen des Spritzbelages mit Sporen des Weizenmehltaus (Erysiphe graminis f.sp.tritici) bestäubt. Die Versuchspflanzen wurden anschließend im Gewächshaus bei Temperaturen zwischen 20 und 22 °C und 75 bis 80 % relativer Luftfeuchtigkeit aufgestellt. Nach 7 Tagen wurde das Ausmaß der Mehltauentwicklung visuell in % der gesamten Blattfläche ermittelt.

[2] = tested on: Weizenmehltau (Erysiphe graminis forma specialis tritici); assay: Efficacy against wheat powdery mildew, protective spray on wheat seedlings cv. "Kanzler" (Anwendungsbeispiel 1); type: in vivo; conditions: inoculated 24 h after spraying, rating after 7 days, untreated 80 %
From the text: Anwendungsbeispiel 1 - Wirksamkeit gegen Weizenmehltau
Blätter von in Töpfen gewachsenen Weizenkeimlingen der Sorte ? Kanzler" wurden mit wäßriger Wirkstoffaufbereitung, die aus einer Stammlösung bestehend aus 10 % Wirkstoff, 63 % Cyclohexanon und 27 % Emulgiermittel angesetzt wurde, bis zur Tropfnässe besprüht und 24 Stunden nach dem Antrocknen des Spritzbelages mit Sporen des Weizenmehltaus (Erysiphe graminis forma specialis tritici) bestäubt. Die Versuchspflanzen wurden anschließend im Gewächshaus bei Temperaturen zwischen 20 und 24°C und 60 bis 90 % relativer Luftfeuchtigkeit aufgestellt. Nach 7 Tagen wurde das Ausmaß der Mehltauentwicklung visuell in % Befall der gesamten Blattfläche ermittelt.

In the case of O=C(Cc1ccccc1)NC(=NOCC1CC1)c1c(Cl)ccc(F)c1Cl [II.1, N-Phenylacetyl-2,6-dichlor-5-fluorbenzamid-[O-cyclopropylmethyl]oxim], the “Ausmaß der Mehltauentwicklung (Befall)” value [1] is reported as “keinen Befall”, the “%-Befall der Blätter nach Applikation von ... ppm-haltiger wäßriger Wirkstoffaufbereitung” value ([2]; 16 ppm) is reported as 0% and the “%-Befall der Blätter nach Applikation von ... ppm-haltiger wäßriger Wirkstoffaufbereitung” value ([2]; 63 ppm) is reported as 0%.

Reference: EP0941988A2, “Benzamidoxime derivatives, intermediates and process for their preparation and their use as fungicides” (BASF AKTIENGESELLSCHAFT, priority 1998, dated 1999)
